System: rabbit skeletal myofibrils (fast skeletal myofibrils)
Test: Activation of fast skeletal myofibrils (PUMA assay, PK/LDH-coupled ATPase at pCa25)
Assay type: biochemical
Settings: AC1.4 determined according to the procedure of Example 39; reported as class symbols
Outline: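 ATPase activity of Triton-washed rabbit skeletal myofibrils, roughly 90% fast fibres, tracked by NADH loss at 340 nm through a PK/LDH-coupled ADP-regenerating system. Calcium set to 25% of maximal activity (pCa25), in PIPES 12 mM pH 6.8 with 2 mM MgCl2 and 1 mM DTT; AC1.4 reported.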

Compound	Mean AC1.4
CC(C)(CNc1ccc(CNS(C)(=O)=O)nn1)c1ccc(F)cc1 [[(6-{[2-(4-fluorophenyl)-2-methylpropyl]amino}pyridazin-3-yl)methyl](methylsulfonyl)amine]	B (B=1-10 uM)
CCOC(=O)C1(NC(=O)c2ccc(NCC(C)(C)c3ccc(F)cc3)nn2)CC1 [ethyl 1-[(6-{[2-(4-fluorophenyl)-2-methylpropyl]amino}pyridazin-3-yl)carbonylamino]cyclopropane-carboxylate]	D (D=>20 uM)
CCOC(=O)c1cc(-c2ccc(NCC(C)(C)c3ccc(F)cc3)nn2)ccc1F [ethyl 2-fluoro-5-(6-{[2-(4-fluorophenyl)-2-methylpropyl]amino}pyridazin-3-yl)benzoate]	B (B=1-10 uM)

Same assay, conditions: median AC1.4 class, procedure of Example 39

Compound	Mean AC1.4
O=C(Nc1ccn[nH]1)c1ccc(NCC2(c3ncccc3F)CCC2)nn1 [[6-({[(3-fluoro(2-pyridyl))cyclobutyl]methyl}ami-no)pyridazin-3-yl]-N-pyrazol-5-ylcarboxamide]	B (B=1-10 uM)
Fc1cccnc1C1(Nc2ccc(-c3ccccc3)nn2)CCC1 [[(3-fluoro(2-pyridyl))cyclobutyl](6-phenylpyridazin-3-yl)amine]	B (B=1-10 uM)
C=Cc1ccc(NC2(c3ncccc3F)CCC2)nn1 [[(3-fluoro(2-pyridyl))cyclobutyl](6-vinylpyridazin-3-yl)amine]	D (D=>20 uM)
Fc1ccc(C2(Nc3ccc(-c4ccncc4)nn3)CCC2)cc1 [[(4-fluorophenyl)cyclobutyl](6-(4-pyridyl)pyridazin-3-yl)amine]	B (B=1-10 uM)
Fc1ccc(C2(Nc3ccc(-c4cn[nH]c4)nn3)CCC2)cc1 [[(4-fluorophenyl)cyclobutyl](6-pyrazol-4-ylpyridazin-3-yl)amine]	B (B=1-10 uM)
COc1ncccc1-c1ccc(NC2(c3ccc(F)cc3)CCC2)nn1 [[(4-fluorophenyl)cyclobutyl][6-(2-methoxy(3-pyridyl))pyridazin-3-yl]amine]	A (A=<1 uM)
COc1cc(-c2ccc(NC3(c4ccc(F)cc4)CCC3)nn2)ccn1 [[(4-fluorophenyl)cyclobutyl][6-(2-methoxy(4-pyridyl))pyridazin-3-yl]amine]	B (B=1-10 uM)
Cc1cc(-c2ccc(NC3(c4ccc(F)cc4)CCC3)nn2)ccn1 [[(4-fluorophenyl)cyclobutyl][6-(2-methyl(4-pyridyl))pyridazin-3-yl]amine]	B (B=1-10 uM)
COc1cccc(-c2ccc(NC3(c4ccc(F)cc4)CCC3)nn2)n1 [[(4-fluorophenyl)cyclobutyl][6-(6-methoxy(2-pyridyl))pyridazin-3-yl]amine]	B (B=1-10 uM)
Fc1ccc(C2(Nc3ccc(-c4cccnc4OCC(F)(F)F)nn3)CCC2)cc1 [[(4-fluorophenyl)cyclobutyl]{6-[2-(2,2,2-trifluoroethoxy)(3-pyridyl)]pyridazin-3-yl}amine]	B (B=1-10 uM)
NC(=O)NCc1cnc(-c2ccc(NCC3(c4ncccc4F)CCC3)nn2)s1 [amino-N-({2-[6-({[(3-fluoro(2-pyridyl))cyclobutyl]methyl}ami-no)pyridazin-3-yl](1,3-thiazol-5-yl)}methyl)amide]	A (A=<1 uM)
NC(=S)c1cnc(-c2ccc(NCC3(c4ncccc4F)CCC3)nn2)s1 [amino{2-[6-({[(3-fluoro(2-pyridyl))cyclobutyl]methyl}ami-no)pyridazin-3-yl](1,3-thiazol-5-yl)}methane-1-thione]	A (A=<1 uM)
NS(=O)(=O)Nc1ccc(F)c(-c2ccc(NCC3(c4ncccc4F)CCC3)nn2)c1 [amino{4-fluoro-3-[6-({[(3-fluoro(2-pyridyl))cyclobutyl]methyl}ami-no)pyridazin-3-yl]phenyl}sulfonamide]	A (A=<1 uM)
CCOC(=O)c1sc(-c2ccc(NCC3(c4ncccc4F)CCC3)nn2)nc1O [ethyl 2-[6-({[(3-fluoro(2-pyridyl))cyclobutyl]methyl}ami-no)pyridazin-3-yl]-4-hydroxy-1,3-thiazole-5-carboxylate]	D (D=>20 uM)
CCOC(=O)c1cc(-c2ccc(NC[C@]3(c4ncccc4F)C[C@H](F)C3)nn2)ccc1F [ethyl 2-fluoro-5-[6-({[3-fluoro-1-(3-fluoro(2-pyridyl))cyclobutyl]methyl}ami-no)pyridazin-3-yl]benzoate]	C (C=10-20 uM)

Same assay, conditions: median AC1.4 reported as class; procedure of Example 39

Compound	Mean AC1.4
O=C(NCc1ccn[nH]1)c1ccc(NCC2(c3ncccc3F)CCC2)nn1 [[6-({[(3-fluoro(2-pyridyl))cyclobutyl]methyl}ami-no)pyridazin-3-yl]-N-(pyrazol-5-ylmethyl)carboxamide]	D (D=>20 uM)
Cn1ccc(CNC(=O)c2ccc(NCC3(c4ncccc4F)CCC3)nn2)n1 [[6-({[(3-fluoro(2-pyridyl))cyclobutyl]methyl}ami-no)pyridazin-3-yl]-N-[(1-methylpyrazol-3-yl)methyl]carboxamide]	D (D=>20 uM)
Cn1nccc1CNC(=O)c1ccc(NCC2(c3ncccc3F)CCC2)nn1 [[6-({[(3-fluoro(2-pyridyl))cyclobutyl]methyl}ami-no)pyridazin-3-yl]-N-[(1-methylpyrazol-5-yl)methyl]carboxamide]	D (D=>20 uM)
O=C1CCC(CNC(=O)c2ccc(NCC3(c4ncccc4F)CCC3)nn2)N1 (centres unmarked) [[6-({[(3-fluoro(2-pyridyl))cyclobutyl]methyl}ami-no)pyridazin-3-yl]-N-[(5-oxopyrrolidin-2-yl)methyl]carboxamide]	D (D=>20 uM)
O=C(Nc1ncc[nH]1)c1ccc(NCC2(c3ncccc3F)CCC2)nn1 [[6-({[(3-fluoro(2-pyridyl))cyclobutyl]methyl}ami-no)pyridazin-3-yl]-N-imidazol-2-ylcarboxamide]	C (C=10-20 uM)
O=C(Nc1ccon1)c1ccc(NCC2(c3ncccc3F)CCC2)nn1 [[6-({[(3-fluoro(2-pyridyl))cyclobutyl]methyl}ami-no)pyridazin-3-yl]-N-isoxazol-3-ylcarboxamide]	B (B=1-10 uM)
CN(Cc1nccs1)C(=O)c1ccc(NCC2(c3ncccc3F)CCC2)nn1 [[6-({[(3-fluoro(2-pyridyl))cyclobutyl]methyl}ami-no)pyridazin-3-yl]-N-methyl-N-(1,3-thiazol-2-ylmethyl)carboxamide]	D (D=>20 uM)
CNC(=O)c1ccc(NCC2(c3ncccc3F)CCC2)nn1 [[6-({[(3-fluoro(2-pyridyl))cyclobutyl]methyl}ami-no)pyridazin-3-yl]-N-methylcarboxamide]	D (D=>20 uM)
OC[C@H]1CNCCN1Cc1cnc(-c2ccc(NCC3(c4ncccc4F)CCC3)nn2)s1 [[(2R)-1-({2-[6-({[(3-fluoro(2-pyridyl))cyclobutyl]methyl}ami-no)pyridazin-3-yl](1,3-thiazol-5-yl)}methyl)piperazin-2-yl]methan-1-ol]	C (C=10-20 uM)
OC[C@@H]1CNCCN1Cc1cnc(-c2ccc(NCC3(c4ncccc4F)CCC3)nn2)s1 [[(2S)-1-({2-[6-({[(3-fluoro(2-pyridyl))cyclobutyl]methyl}ami-no)pyridazin-3-yl](1,3-thiazol-5-yl)}methyl)piperazin-2-yl]methan-1-ol]	B (B=1-10 uM)
CC(C)[C@H](N)C(=O)N[C@H](C(=O)OCC(=O)NCc1cnc(-c2ccc(NCC3(c4ncccc4F)CCC3)nn2)s1)C(C)C [[N-({2-[6-({[(3-fluoro-2-pyridyl)cyclobutyl]methyl}ami-no)pyridazin-3-yl]-1,3-thiazol-5-yl}methyl)carbamoyl]methyl (2S)-2-((2S)-2-amino-3-methylbutanoylamino)-3-methylbutanoate]	A (A=<1 uM)
C[C@H](N)C(=O)N[C@@H](C)C(=O)OCC(=O)NCc1cnc(-c2ccc(NCC3(c4ncccc4F)CCC3)nn2)s1 [[N-({2-[6-({[(3-fluoro-2-pyridyl)cyclobutyl]methyl}ami-no)pyridazin-3-yl]-1,3-thiazol-5-yl}methyl)carbamoyl]methyl (2S)-2-((2S)-2-aminopropanoylamino)propanoate]	A (A=<1 uM)
CC(C)[C@H](N)C(=O)OCC(=O)NCc1cnc(-c2ccc(NCC3(c4ncccc4F)CCC3)nn2)s1 [[N-({2-[6-({[(3-fluoro-2-pyridyl)cyclobutyl]methyl}ami-no)pyridazin-3-yl]-1,3-thiazol-5-yl}methyl)carbamoyl]methyl (2S)-2-amino-3-methylbutanoate]	A (A=<1 uM)
C[C@H](N)C(=O)OCC(=O)NCc1cnc(-c2ccc(NCC3(c4ncccc4F)CCC3)nn2)s1 [[N-({2-[6-({[(3-fluoro-2-pyridyl)cyclobutyl]methyl}ami-no)pyridazin-3-yl]-1,3-thiazol-5-yl}methyl)carbamoyl]methyl (2S)-2-aminopropanoate]	A (A=<1 uM)
NC(=O)NC1CCc2nc(-c3ccc(NCC4(c5ncccc5F)CCC4)nn3)sc2C1 (centres unmarked) [amino-N-{2-[6-({[(3-fluoro(2-pyridyl))cyclobutyl]methyl}ami-no)pyridazin-3-yl](4,5,6,7-tetrahydrobenzothiazol-6-yl)}amide]	D (D=>20 uM)
CCOC(=O)Cc1csc(NC(=O)c2ccc(NCC3(c4ncccc4F)CCC3)nn2)n1 [ethyl 2-(2-{[6-({[(3-fluoro-2-pyridyl)cyclobutyl]methyl}ami-no)pyridazin-3-yl]carbonylamino}-1,3-thiazol-4-yl)acetate]	A (A=<1 uM)
CCOC(=O)Cc1nnc(NC(=O)c2ccc(NCC3(c4ncccc4F)CCC3)nn2)s1 [ethyl 2-(5-{[6-({[(3-fluoro-2-pyridyl)cyclobutyl]methyl}ami-no)pyridazin-3-yl]carbonylamino}-1,3,4-thiadiazol-2-yl)acetate]	D (D=>20 uM)

Source: patent US10076519B2 (CYTOKINETICS, INC., priority 2010, dated 2018)
